Legend:
B-Raf = B-Raf (Homo sapiens (Human), UniProt P15056); experiment: Raf kinase assay (B-Raf), [33P] incorporation into MEK1(K97R); assay type: biochemical; settings: for inhibition at 1 µM: 1.0 μM compound, read-out: B-Raf inhibition at 1.0 μM
How it was run: (§1)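 [33P] transfer to kinase-dead MEK1(K97R) substrate (500 ng) measured after 30 min at 30 °C in Tris pH 7.5 buffer containing 8 μM ATP. Enzyme inputs were 2 ng for C-Raf and 5 ng for B-Raf and B-Raf V600E. Duplicate 3-fold serial dilutions gave the half-maximal inhibitory concentration.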

B-Raf (V600E) = B-Raf (V600E) (Homo sapiens (Human), UniProt P15056, V600E); experiment: Raf kinase assay (B-Raf (V600E)), [33P] incorporation into MEK1(K97R); assay type: biochemical
How it was run: as §1

C-Raf = C-Raf (Homo sapiens (Human), UniProt P04049); experiment: Raf kinase assay (C-Raf), [33P] incorporation into MEK1(K97R); assay type: biochemical
How it was run: as §1

A549 = experiment: Anti-proliferative activity, CellTiter-96 assay, A549; assay type: cell-based; settings: Homo sapiens, A549 cells, 72 hours incubation
Description: (§2) Antiproliferative Activity
(§3) The anti-proliferative activities of the compounds with formula (I) and formula (II) with respect to four human cancer cell lines (A549, A375, MDA-MB-231, and COLO205) were measured using the CellTiter™-96 assay kit (Promega) following the manufacturer's instructions. In brief, the cells were maintained in DMEM containing 10% FCS and incubated at 37° C. in 5% CO2 atmosphere. Cells were plated at a density of 2000 cells/well of a 96-well plate for 24 h, then treated with different concentrations of the compounds, and incubated for another 72 hours. At the end of the incubation, CellTiter™-96 Aqueous One Solution Reagent (Promega) was added and incubated for another 4.0 hours. Cell viability was determined by measuring absorbance at 490 nm using EMax® microplate reader (Molecular Devices). Data were processed and analyzed using GraphPad Prism version 4.

A375 = experiment: Anti-proliferative activity, CellTiter-96 assay, A375; assay type: cell-based; settings: Homo sapiens, A-375, A375 cells, 72 hours incubation
Description: as §2, §3

MDA-MB-231 = experiment: Anti-proliferative activity, CellTiter-96 assay, MDA-MB-231; assay type: cell-based; settings: Homo sapiens, MDA-MB-231 cells, 72 hours incubation
Description: as §2, §3

COLO205 = experiment: Anti-proliferative activity, CellTiter-96 assay, COLO205; assay type: cell-based; settings: Homo sapiens, COLO 205, COLO205 cells, 72 hours incubation
Description: as §2, §3

Sequence of B-Raf (P15056 whole entry): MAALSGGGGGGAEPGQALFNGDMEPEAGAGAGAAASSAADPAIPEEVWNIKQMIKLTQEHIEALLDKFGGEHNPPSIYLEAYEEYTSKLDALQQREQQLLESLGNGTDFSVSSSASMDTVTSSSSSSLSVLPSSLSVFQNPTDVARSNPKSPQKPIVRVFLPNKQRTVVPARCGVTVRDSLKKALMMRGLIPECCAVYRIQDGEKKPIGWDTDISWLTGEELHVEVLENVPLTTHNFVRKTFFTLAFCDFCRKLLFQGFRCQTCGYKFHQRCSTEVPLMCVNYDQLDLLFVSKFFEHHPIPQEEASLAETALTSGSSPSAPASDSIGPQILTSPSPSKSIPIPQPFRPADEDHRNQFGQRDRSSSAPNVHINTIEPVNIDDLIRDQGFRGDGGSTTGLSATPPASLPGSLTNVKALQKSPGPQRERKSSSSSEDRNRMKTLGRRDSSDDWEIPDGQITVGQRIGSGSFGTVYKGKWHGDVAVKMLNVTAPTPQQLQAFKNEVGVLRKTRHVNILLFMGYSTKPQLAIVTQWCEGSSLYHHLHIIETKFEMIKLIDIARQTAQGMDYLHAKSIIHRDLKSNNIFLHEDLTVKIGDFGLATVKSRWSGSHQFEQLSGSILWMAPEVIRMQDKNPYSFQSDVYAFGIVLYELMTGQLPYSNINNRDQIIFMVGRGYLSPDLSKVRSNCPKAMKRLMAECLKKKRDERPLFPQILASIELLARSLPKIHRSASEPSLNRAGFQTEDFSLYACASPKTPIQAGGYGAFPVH
Sequence of B-Raf (V600E) (P15056 whole entry V600E): as the sequence (P15056 whole entry) above, with V600E counted along it
Sequence of C-Raf (P04049 whole entry): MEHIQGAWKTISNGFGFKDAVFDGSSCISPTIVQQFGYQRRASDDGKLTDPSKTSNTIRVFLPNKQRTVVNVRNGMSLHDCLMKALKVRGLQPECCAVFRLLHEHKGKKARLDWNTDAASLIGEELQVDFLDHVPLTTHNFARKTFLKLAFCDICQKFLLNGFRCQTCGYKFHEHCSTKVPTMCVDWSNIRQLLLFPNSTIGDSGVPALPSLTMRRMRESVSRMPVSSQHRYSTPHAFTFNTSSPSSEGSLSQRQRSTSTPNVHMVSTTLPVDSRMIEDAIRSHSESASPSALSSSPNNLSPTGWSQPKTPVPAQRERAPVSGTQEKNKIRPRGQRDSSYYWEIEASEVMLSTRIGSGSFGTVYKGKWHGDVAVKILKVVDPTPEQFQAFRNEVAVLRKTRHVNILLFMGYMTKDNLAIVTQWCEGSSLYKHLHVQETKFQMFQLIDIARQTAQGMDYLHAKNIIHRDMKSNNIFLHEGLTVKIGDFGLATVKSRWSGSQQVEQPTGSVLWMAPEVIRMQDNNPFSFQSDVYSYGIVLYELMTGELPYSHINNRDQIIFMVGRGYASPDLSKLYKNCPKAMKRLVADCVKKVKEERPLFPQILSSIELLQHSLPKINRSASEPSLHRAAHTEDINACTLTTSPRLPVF

| SMILES | IC50 (B-Raf) [nM] | inhibition at 1 µM (B-Raf) [%] | IC50 (B-Raf (V600E)) [nM] | IC50 (C-Raf) [nM] | IC50 (A549) [nM] | IC50 (A375) [nM] | IC50 (MDA-MB-231) [nM] | IC50 (COLO205) [nM] |
| --- | --- | --- | --- | --- | --- | --- | --- | --- |
| COc1cc(-c2ccc3ncnc(Nc4cc(O)ccc4Cl)c3c2)ccc1O [Compound 59, 4-(4-(2-chloro-5-hydroxyphenylamino)quinazolin-6-yl)-2-methoxyphenol] | 36.5 | 92.6 | 64.7 | 290 | 600 ± 300 | 700 ± 100 | 900 ± 200 | 4500 ± 600 |
| Fc1ccc(-c2ccc3ncnc(Nc4cccc5[nH]ncc45)c3c2)cc1F [Compound 85, 6-(3,4-difluorophenyl)-N-(1H-indazol-4-yl)quinazolin-4-amine] | 174 | 83 | 209 | 495 | 14200 ± 800 | 11400 ± 3000 | 23200 ± 2000 | 15900 ± 4100 |
| COc1cccc(-c2ccc3nccc(Nc4cccc5[nH]ncc45)c3c2)c1F [Compound 111, 6-(2-fluoro-3-methoxyphenyl)-N-(1H-indazol-4-yl)quinolin-4-amine] | 83.4 | 89.1 | 99.9 | 290 | 25100 ± 7100 | 36300 ± 1700 | 26500 ± 7300 | 32300 ± 8500 |
| COc1ccc(-c2ccc3nccc(Nc4cccc5[nH]ncc45)c3c2)cc1C=O [Compound 116, 5-(4-(1H-indazol-4-ylamino)quinolin-6-yl)-2-methoxybenzaldehyde] | 99.6 | 88.4 | 117 | 233 | 6400 ± 700 | 5400 ± 700 | 6200 ± 400 | 6300 ± 200 |
| COc1cc(-c2ccc3ncnc(Nc4ccc(F)c(O)c4)c3c2)ccc1O [Compound 161, 4-(4-(4-fluoro-3-hydroxyphenylamino)quinazolin-6-yl)-2-methoxyphenol] | 16.9 | 94.7 | 23.4 | 133 | 1500 ± 300 | 1000 ± 100 | 2100 ± 500 | 5200 ± 1800 |
| COc1cc(-c2ccc3nccc(Nc4cccc(O)c4)c3c2)ccc1O [Compound 100, 4-(4-(3-hydroxyphenylamino)quinolin-6-yl)-2-methoxyphenol] | 21 | 95.8 | 23 | 136 | 1780 ± 200 | 1400 ± 400 | 5500 ± 500 | 5200 ± 200 |
| NC(=O)c1cccc(-c2ccc3ncnc(Nc4cccc5[nH]ncc45)c3c2)c1 [Compound 97, 3-(4-(1H-indazol-4-ylamino)quinazolin-6-yl)benzamide] | 112 | 86.6 | 151 | 584 | > 50000 | 24500 ± 7100 | 12700 ± 2000 | 12700 ± 2100 |
| COc1cc(-c2ccc3ncnc(Nc4cc(O)c(Cl)cc4F)c3c2)ccc1O [Compound 159, 2-chloro-4-fluoro-5-(6-(4-hydroxy-3-methoxyphenyl)quinazolin-4-ylamino)phenol] | 11.1 | 97.4 | 19.7 | 69.2 | 2900 ± 400 | 2300 ± 500 | 4300 ± 600 | 7900 ± 1900 |
| COc1cc(-c2ccc3ncnc(Nc4cccc5[nH]ncc45)c3c2)ccc1O [Compound 51, 4-(4-(1H-indazol-4-ylamino)quinazolin-6-yl)-2-methoxyphenol] | 121 | 86 | 157 | 404 | 1600 ± 300 | 1400 ± 100 | 1600 ± 400 | 7700 ± 300 |
| COc1cc(-c2cc3c(Nc4cc(O)ccc4Cl)ncnc3cc2OC)ccc1O [Compound 43, 4-(4-(2-chloro-5-hydroxyphenylamino)-7-methoxyquinazolin-6-yl)-2-methoxyphenol] | 40.4 | 94.3 | 47.3 | 245 | 2200 ± 400 | 8700 ± 2700 | > 50000 | 24700 ± 2400 |
